Series [1] can be described thus: Aqueous Solubility in pION's buffer. It is filed as physicochemical.
A short description of series [2]: Aqueous Solubility in 1xPBS, pH 7.4. It is filed as physicochemical. The settings on record: pH 7.4, aqueous buffer.
A further series can be described thus: PAMPA Permeability. Format: in vitro ADME. For orientation: PAMPA measures passive passage across an artificial lipid membrane.
Series [3] in a line: Hepatic Microsome Stability Mouse. Format: in vitro ADME.
Series [4] can be described thus: Hepatic Microsome Stability Human. Format: in vitro ADME.
A further series has as its system A375. The series can be described thus: 48 h Cytotoxicity A375. The settings on record: Homo sapiens, A-375. It is filed as cell-based.
Series [5] deals with EmCV Cap-dependent translation. The series can be described thus: In vitro translation assay, FF-EmCV-Ren construct, cap-dependent (FF luciferase). Format: biochemical, rabbit reticulocyte lysates. The gist of the method: (§1)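 In a cell-free system, lysate-driven translation of FF-IRES-Ren RNA (0.1 μg per well, 2 h, 30° C) follows 1 h compound pre-treatment at room temperature. Dual-Glo readings separate cap-dependent (FF) from IRES-mediated (Ren) output.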

The target in series [6] is EmCV Cap-independent translation. The series is described as follows: In vitro translation assay, FF-EmCV-Ren construct, cap-independent (Ren luciferase). It is filed as biochemical, rabbit reticulocyte lysates. The method, boiled down:
as §1

Series [7] addresses HCV cap-dependent translation. The series can be described thus: In vitro translation assay, FF-HCV-Ren construct, cap-dependent (FF luciferase). Format: biochemical, rabbit reticulocyte lysates. The gist of the method:
as §1

Series [8] deals with HCV cap-independent translation. The series can be described thus: In vitro translation assay, FF-HCV-Ren construct, cap-independent (Ren luciferase). Format: biochemical, rabbit reticulocyte lysates. The gist of the method:
as §1

In the next series the test system is A375 tumors. The series is described as follows: A375 xenograft in nude mice. Format: in vivo. The method, then:
All animal studies were conducted in the SBMRI Animal Facility in accordance with the Institutional Animal Care and Use Committee guidelines. Six-week-old female nu/nu mice were purchased Harlan Laboratories (Indianapolis, Ind.) and allowed to acclimatize for 1 week. A375 cells (1×10^6, suspended in 200 μL sterile PBS) were injected into subcutaneous flank tissue. When the xenograft size reached ˜250 mm^3, mice were sorted into different groups. For PLX4720 and Compound 38 combination experiments, mice were either fed PLX4720-containing chow alone (AIN76A Roden Diet with 417 mg PLX4720/kg from Open Source Diets) for the control group or PLX4 720-containing chow plus an IP injection of 1 mg/kg Compound 38 twice a week. For MEKi plus Compound 38 experiments, PD0325901 at 20 mg/kg (formulated in 0.5% hydroxypropyl methylcellulose plus 0.2% Tween-80) was administered by oral gavage twice a week (Monday and Thursday) for the control group, or PD035901 plus IP injection of 1 mg/kg Compound 38 was administered twice a week (Tuesday and Friday). Mice were maintained in a pathogen-free environment with free access to food. Body weight and tumor volume were measured twice a week. Tumor size was measured with linear calipers and calculated using the formula: ([length in millimeters×(width in millimeters)2]/2). Mice were sacrificed after 4 weeks and tumors were fixed in Z-Fix (Anatech, Battle Creek, Mich.) and embedded in paraffin for immunohistochemistry.
A375 human melanomacells were injected subcutaneously (1×10^6) into the flank of nude mice and allowed to form established tumors. Once tumors reached approximately 250 mm3, mice were randomly grouped and subjected to the indicated treatments [chow containing PLX4720 (417 mg/kg) and/or Compound 38 (1 mg/kg, 2 times per week intraperitoneally)]. Tumor size was measured at the indicated time points. The experiment was repeated twice. […] When tumors were allowed to reach 500 mm^3 before initiating treatment, 5 of 7 […] mice subjected to BRAFi treatment alone relapsed as drug-resistant tumors (4/5 within 4-6 weeks), whereas only 3 of 6 (50%) subjected to combination treatment developed resistance, albeit more slowly (2/3 after 8 weeks; FIG. 22). […] Proteins prepared at the indicated times from A375 tumors that were subjected in vivo to treatment with Compound 38 were incubated with m^7GTP-beads to capture the eIF4F complex. Shown is time-dependent inhibition of eIF4G1 binding to eIF4E in vivo, concomitant with increased binding of inhibitory 4E-BP1 to eIF4E.

For a further series, the target named is T1, eIF4F complex (Mus musculus, UniProt Q6NZJ6).
T1 construct: endogenous in cells; host or cells: WT and 4E-BP1/2 double-knock-out MEFs
The series can be described thus: m7GTP pull-down assay, WT or 4E-BP DKO MEFs. Format: cell-based. The note with it: 6 hours, Torin1 250 nmol/L. The method, then: As previously described (Dowling R J, et al. mTORC1-mediated cell proliferation, but not cell growth, controlled by the 4E-BPs. Science. 2010; 328:1172-6), cells growing in 100 mm plates were washed (cold PBS), collected, and lysed in 50 mM MOPS/KOH (7.4), 100 mM NaCl, 50 mM NaF, 2 mM EDTA, 2 mM EGTA, 1% NP40, 1% Na-DOC, 7 mM β-mercaptoethanol, protease inhibitors and phosphatase inhibitor cocktail (Roche). Lysates were incubated with m7-GDP-agarose beads (Jena Bioscience) for 20 minutes, washed 4 times with the washing buffer containing 50 mM MOPS/KOH (7.4), 100 mM NaCl, 50 mM NaF, 0.5 mM EDTA, 0.5 mM EGTA, 7 mM (3-mercaptoethanol, 0.5 mM PMSF, 1 mM Na3VO4 and 0.1 mM GTP, and bound proteins were eluted by boiling the beads in loading buffer. m7-GDP-agarose pulled down material was analyzed by Western blot analysis.
Indicated cultures (WT or DKO 4E-BP) were treated with Torin1 (250 nmol/L) or indicated Compound 38 concentrations for 6 hours. Western blots show respective protein levels in total cell lysates or following pull-down using m^7GTP agarose beads. […] P3-Actin served as a loading control and to exclude contamination in m^7GTP pull-down.

[9] abbreviates: aqueous buffer, pH 5.0, read-out: Aqueous Solubility in pION's buffer pH 5.0.
[10] abbreviates: pH 6.2, aqueous buffer, read-out: Aqueous Solubility in pION's buffer pH 6.2.
Where [11] appears, read: pH 7.4, aqueous buffer, read-out: Aqueous Solubility in pION's buffer pH 7.4.
[12] abbreviates: Donor pH 5.0, Acceptor pH 7.4, read-out: PAMPA Permeability, Pe, Donor pH 5.0.
Where [13] appears, read: Donor pH 6.2, Acceptor pH 7.4, read-out: PAMPA Permeability, Pe, Donor pH 6.2.
Where [14] appears, read: pH 7.4, Donor pH 7.4, Acceptor pH 7.4, read-out: PAMPA Permeability, Pe, Donor pH 7.4.

Here are results for five compounds from patent US10577349B2 (Sanford Burnham Prebys Medical Discovery Institute, priority 2015, dated 2020).

In brackets after ≈: the same amount, converted by molar mass. Like-named read-outs stand apart in the source and are kept apart here.

T1 sequence (Q6NZJ6 whole entry, one chain of several): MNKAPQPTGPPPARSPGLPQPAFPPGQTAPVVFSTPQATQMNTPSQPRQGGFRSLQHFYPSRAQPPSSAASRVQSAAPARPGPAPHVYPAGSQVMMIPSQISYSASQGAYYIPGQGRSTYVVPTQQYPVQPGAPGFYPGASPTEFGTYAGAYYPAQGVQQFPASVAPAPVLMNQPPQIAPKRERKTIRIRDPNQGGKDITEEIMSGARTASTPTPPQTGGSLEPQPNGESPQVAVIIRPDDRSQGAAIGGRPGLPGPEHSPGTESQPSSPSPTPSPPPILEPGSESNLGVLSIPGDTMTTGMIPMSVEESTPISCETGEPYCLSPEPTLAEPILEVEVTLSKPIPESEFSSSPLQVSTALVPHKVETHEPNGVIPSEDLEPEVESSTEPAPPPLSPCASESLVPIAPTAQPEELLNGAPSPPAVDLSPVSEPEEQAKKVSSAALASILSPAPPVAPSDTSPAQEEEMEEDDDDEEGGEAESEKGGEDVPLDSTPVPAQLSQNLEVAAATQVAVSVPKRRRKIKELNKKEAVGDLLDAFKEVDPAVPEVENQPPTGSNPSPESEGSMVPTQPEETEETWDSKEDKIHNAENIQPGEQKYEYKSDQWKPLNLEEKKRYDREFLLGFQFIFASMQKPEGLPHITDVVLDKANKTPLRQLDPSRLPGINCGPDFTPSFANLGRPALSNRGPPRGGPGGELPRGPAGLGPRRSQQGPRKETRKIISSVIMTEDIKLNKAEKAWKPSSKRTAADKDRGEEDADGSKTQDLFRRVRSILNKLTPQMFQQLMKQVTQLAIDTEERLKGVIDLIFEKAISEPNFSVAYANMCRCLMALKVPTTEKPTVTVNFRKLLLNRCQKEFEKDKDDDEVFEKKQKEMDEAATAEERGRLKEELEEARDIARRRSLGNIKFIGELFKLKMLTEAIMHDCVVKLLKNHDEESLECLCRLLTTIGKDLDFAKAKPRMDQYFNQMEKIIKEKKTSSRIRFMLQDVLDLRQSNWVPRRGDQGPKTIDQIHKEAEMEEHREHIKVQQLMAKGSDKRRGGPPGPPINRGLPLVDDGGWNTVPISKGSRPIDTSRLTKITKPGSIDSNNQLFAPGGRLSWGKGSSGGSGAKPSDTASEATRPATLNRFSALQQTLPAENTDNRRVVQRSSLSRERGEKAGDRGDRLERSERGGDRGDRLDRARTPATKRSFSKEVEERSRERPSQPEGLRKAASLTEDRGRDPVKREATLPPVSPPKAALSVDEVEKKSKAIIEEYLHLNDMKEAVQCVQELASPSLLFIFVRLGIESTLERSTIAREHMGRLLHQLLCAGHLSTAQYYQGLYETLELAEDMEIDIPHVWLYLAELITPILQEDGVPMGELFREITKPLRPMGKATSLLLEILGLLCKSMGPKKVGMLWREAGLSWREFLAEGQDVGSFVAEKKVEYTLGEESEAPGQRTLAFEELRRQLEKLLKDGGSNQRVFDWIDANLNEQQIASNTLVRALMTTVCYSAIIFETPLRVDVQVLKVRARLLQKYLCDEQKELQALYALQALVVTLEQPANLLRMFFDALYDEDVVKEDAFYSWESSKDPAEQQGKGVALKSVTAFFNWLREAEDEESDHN

Take `O=C(/C=C/c1nc2ccccc2[nH]1)c1c(O)nc2ccc(Cl)cc2c1-c1ccccc1` [BI-69A11, reference compound]: the solubility in [1] (setting [9]) was 0.16 µg/mL (≈ 0.376 µM); in series [1] (setting [10]) it was 0.24 µg/mL (≈ 0.564 µM); in series [1] (setting [11]), 0.1 µg/mL (≈ 0.235 µM); in series [2], 0.11 µg/mL (≈ 0.258 µM). Besides, the Papp was 13 ×10⁻⁶ cm/s in “PAMPA Permeability” (setting [12]), 16 ×10⁻⁶ cm/s in “PAMPA Permeability” (setting [13]) and 42 ×10⁻⁶ cm/s in the series “PAMPA Permeability” (setting [14]). Moreover, in series [3], the “Hepatic Microsome Stability (% remaining at 1 Hr) Mouse” value amounted to 48.54 % remaining. In [3], the “Hepatic Microsome Stability (% remaining at 1 Hr) Mouse (no NADPH)” value was determined as 45.01 % remaining. Further, the “Hepatic Microsome Stability (% Remaining at 1 hr) Human” value in series [4] was determined as 68.24 % Remaining. Also, the “Hepatic Microsome Stability (% Remaining at 1 hr) Human (no NADPH)” value in [4] turned out to be 61.74 % Remaining.

As for `O=C(/C=C/c1ccccc1)c1c(C2CCCCC2)c2cc(Cl)ccc2[nH]c1=O` [Compound 12, 6-chloro-3-cinnamoyl-4-cyclohexylquinolin-2(1H)-one], the IC50 with A375 is under 2 µM; in series [5], 2 to 10 µM; in series [6] it was 10 to 20 µM; in series [7], 10 to 20 µM; in series [8] it was over 20 µM. In addition, the solubility is 1.6 µg/mL (≈ 4.08 µM) in series [1] (setting [9]), 1.4 µg/mL (≈ 3.57 µM) in series [1] (setting [10]), 1.2 µg/mL (≈ 3.06 µM) in series [1] (setting [11]) and 1.5 µg/mL (≈ 3.83 µM) in series [2]. For the same compound, the Papp was 1010 ×10⁻⁶ cm/s in “PAMPA Permeability” (setting [12]), 301 ×10⁻⁶ cm/s in “PAMPA Permeability” (setting [13]) and 379 ×10⁻⁶ cm/s in “PAMPA Permeability” (setting [14]). For the same compound, in [3], the “Hepatic Microsome Stability (% remaining at 1 Hr) Mouse” value turned out to be 32.98 % remaining. The “Hepatic Microsome Stability (% remaining at 1 Hr) Mouse (no NADPH)” value in [3] was determined as 63.69 % remaining. Also, the “Hepatic Microsome Stability (% Remaining at 1 hr) Human” value in [4] is on record as 59.85 % Remaining. In [4], the “Hepatic Microsome Stability (% Remaining at 1 hr) Human (no NADPH)” value amounted to 57.73 % Remaining.

Regarding `O=C(/C=C/c1nc2cc(Cl)ccc2[nH]1)c1c(-c2ccccc2)c2cc(Cl)ccc2[nH]c1=O` [Compound 62, 6-Chloro-3-[3-(5-chloro-1H-benzoimidazol-2-yl)-acryloyl]-4-phenyl-1H-quinolin-2-one], the IC50 was under 2 µM with A375; 2 to 10 µM in series [5]; 2 to 10 µM in series [6]; 2 to 10 µM in series [7]; 2 to 10 µM in [8]. Besides, the solubility in series [1] (setting [9]) turned out to be 0.34 µg/mL (≈ 0.739 µM); in series [1] (setting [10]), 0.42 µg/mL (≈ 0.912 µM); in series [1] (setting [11]), 0.12 µg/mL (≈ 0.261 µM); in series [2], 0.11 µg/mL (≈ 0.239 µM). Besides, the figures for the Papp in the series “PAMPA Permeability” (setting [12]), in the series “PAMPA Permeability” (setting [13]) and in the series “PAMPA Permeability” (setting [14]) were 29 ×10⁻⁶ cm/s, 6.2 ×10⁻⁶ cm/s and 2.5 ×10⁻⁶ cm/s, respectively. Further, the “Hepatic Microsome Stability (% remaining at 1 Hr) Mouse” value in series [3] came out at 85.64 % remaining. Moreover, in series [3], the “Hepatic Microsome Stability (% remaining at 1 Hr) Mouse (no NADPH)” value came out at 82.96 % remaining. The “Hepatic Microsome Stability (% Remaining at 1 hr) Human” value in [4] was found to be 89.89 % Remaining. For the same compound, the “Hepatic Microsome Stability (% Remaining at 1 hr) Human (no NADPH)” value in series [4] was 54.66 % Remaining.

Consider `CCCS(=O)(=O)Nc1ccc(F)c(C(=O)c2c[nH]c3ncc(Cl)cc23)c1F` [PLX4720, reference compound], for which, in the series with A375 tumors (chow containing PLX4720 (417 mg/kg)), the “Growth of established tumors (~250 mm^3), BRAFi alone” value is “largely inhibited”. Besides, in the series with A375 tumors (treatment started at ~250 mm^3, PLX4720 chow), the “Tumors resumed growth, BRAFi-treated group” value is on record as 3/5.

`CCC(=O)N1CCN(c2ccc(-n3c(=O)ccc4cnc5ccc(-c6cnc7ccccc7c6)cc5c43)cc2C(F)(F)F)CC1` [torin1, reference compound]: at eIF4F complex, the “eIF4G1:eIF4E association (m7GTP pull-down)” value is recorded as “induced dissociation of eIF4G1 from eIF4E in WT but not in 4E-BPDKOMEFs”.

A word on the solubility: it is the dissolved amount per volume that the medium holds. A word on the IC50: it is the concentration needed to halve the response being measured. A high value points to weaker potency.
